Here are results for 19 compounds from PubChem BioAssay (NCI).

What all share (experiment): DTP human tumour cell line panel, 48 h
The test system of experiment [1] is ACHN renal.
The subject of experiment [2] is EKVX NSCLC.
In experiment [3] the test system is HS 578T breast.
For experiment [4], the system named is K-562 leukemia.
Experiment [5] deals with KM12 colon.
In experiment [6] the test system is MDA-MB-435.
In experiment [7] the test system is OVCAR-8 ovarian.
Experiment [8] has as its system PC-3 prostate.
The test system of experiment [9] is RPMI-8226 leukemia.
The subject of experiment [10] is SF-295 CNS.
Experiment [11] deals with SK-MEL-2 melanoma.
The subject of experiment [12] is SK-MEL-5 melanoma.
For experiment [13], the system named is SNB-19 CNS.
Experiment [14] concerns TK-10 renal.
The subject of experiment [15] is UACC-257 melanoma.

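Assay format: 96-well plates, 48-hour exposure. TGI: total growth inhibition.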

`O=C(Nc1ccccc1)N(C1=NCC(CI)S1)c1ccc(F)cc1F` (centres undefined): the TGI in experiment [1], in experiment [2], in [3], in [4], in [5] and in [6] was greater than 100 µM in each case. Besides, the TGI in experiment [7], in experiment [8], in experiment [9], in [10], in experiment [11] and in experiment [12] was greater than 100 µM throughout. Besides, the TGI in [13] was greater than 100 µM; in experiment [14], greater than 100 µM; in experiment [15], 84 µM.

As for `CCCCCCOc1ccc(C(=O)NO)cc1`, the TGI in experiment [1] amounted to 21.5 µM; in [2] it was 52.7 µM; in experiment [3] it was 67.2 µM; in [4], 57.7 µM; in experiment [5] it was 27.6 µM; in [6], 38.5 µM. The TGI is 31.6 µM in experiment [7]; 35.2 µM in [8]; 29.8 µM in experiment [9]; 40.9 µM in experiment [10]; 39 µM in [11]; greater than 58.2 µM in experiment [12]. The figures for the TGI in experiment [13], in experiment [14] and in [15] were 54.8 µM, greater than 100 µM and greater than 91.5 µM, respectively.

On to `CCOC(=O)CSc1nnc2cc(CN3CCCC3)c(-c3ccc(Cl)cc3)nn12`, for which the TGI in [1], in experiment [2], in experiment [3], in experiment [4], in experiment [5] and in [6] was greater than 100 µM in each case. In addition, the TGI in [7], in [8], in experiment [9], in experiment [10], in experiment [11] and in experiment [12] was greater than 100 µM throughout. The TGI in experiment [13], in experiment [14] and in [15] was greater than 100 µM each time.

Regarding `Cc1ccc(Nc2c(C#N)[n+]([O-])c3cc(Cl)ccc3[n+]2[O-])cc1`, the TGI in experiment [1], in experiment [2], in experiment [3], in experiment [4], in experiment [5] and in [6] was greater than 100 µM each time. For the same compound, the TGI in [7], in experiment [8], in [9], in [10], in [11] and in experiment [13] was greater than 100 µM each time. Moreover, the TGI in [14] and in experiment [15] was greater than 100 µM in each case.

For the compound `CCN(CC)CCNC(=O)c1cc2cc(NC(=O)c3cc4cc(NC(=O)c5cc6cc(N)ccc6[nH]5)ccc4[nH]3)ccc2[nH]1`, the TGI in [1], in experiment [2], in [3], in experiment [4], in experiment [5] and in experiment [6] was greater than 100 µM throughout. Also, the TGI in [7], in [8], in [9], in [10], in experiment [11] and in experiment [12] was greater than 100 µM throughout. Moreover, the TGI in experiment [13], in experiment [14] and in [15] was greater than 100 µM each time.

As to `Cc1ccc(N=Nc2ccc(O)c(CN(C)C)c2)cc1`, the TGI in experiment [1] worked out at 41.8 µM; in [2] it was 51.9 µM; in [3], 41.9 µM; in [4], 39.6 µM; in experiment [5] it was 37.9 µM; in experiment [6] it was 32.3 µM. Besides, the TGI stood at 42.3 µM in experiment [7]; 54.7 µM in experiment [8]; 48 µM in [9]; 33.7 µM in experiment [10]; 37.7 µM in [11]; 28 µM in experiment [12]. Besides, the TGI in [13] is greater than 100 µM; in experiment [14], 44.5 µM; in experiment [15] it was 32.3 µM.

On to `CN(NC(=O)c1cccs1)C1=NCCCCN1`, for which the TGI in experiment [1], in [2], in experiment [3], in experiment [4], in [5] and in experiment [6] was greater than 100 µM each time. The TGI in experiment [7], in experiment [8], in experiment [9], in experiment [10], in [11] and in experiment [12] was greater than 100 µM throughout. Moreover, the TGI in experiment [13], in experiment [14] and in experiment [15] was greater than 100 µM throughout.

`CC(SC(=S)N1CCOCC1)C(=O)Nc1nnc(-c2ccccc2)o1` (centres undefined): the TGI in experiment [1], in experiment [2], in experiment [3], in [4], in experiment [5] and in experiment [6] was greater than 100 µM in each case. Moreover, the TGI in experiment [7], in experiment [8], in experiment [9], in experiment [10], in [11] and in experiment [12] was greater than 100 µM in each case. The TGI in [13], in experiment [14] and in experiment [15] was greater than 100 µM in each case.

Consider `Cc1ccc(-c2cc(C(F)(F)F)nn2-c2ccc(S(N)(=O)=O)cc2)cc1`, for which the TGI in [1] was greater than 56 µM; in experiment [2] it was 54.4 µM; in experiment [3], 58.7 µM; in experiment [4], greater than 50.6 µM; in experiment [5], 35.9 µM; in experiment [6], greater than 56 µM. Moreover, the TGI in experiment [7] was greater than 62.8 µM; in experiment [8] it was 34.1 µM; in [9] it was 29.9 µM; in [10], 55.4 µM; in experiment [11], 43.5 µM; in experiment [12] it was 32.6 µM. In addition, the TGI was greater than 56.7 µM in experiment [13], greater than 59.2 µM in [14] and greater than 58.3 µM in experiment [15].

Consider `c1cc2c(c(NC3=NCCO3)c1)CCC2`, for which the TGI in [1], in experiment [2], in experiment [3], in [4], in [5] and in [6] was greater than 100 µM each time. The TGI in experiment [7], in experiment [8], in [9], in experiment [10], in experiment [11] and in experiment [12] was greater than 100 µM in each case. Besides, the concentration for total growth inhibition (TGI) in [13], in experiment [14] and in experiment [15] was greater than 100 µM in each case.

Regarding `O=P1(Oc2ccccc2)N(CCCl)CCN1c1ccccc1` (centres undefined), the TGI in experiment [1], in experiment [2], in [3], in experiment [4], in [5] and in experiment [6] was greater than 100 µM each time. Besides, the TGI in experiment [7], in [8], in experiment [9], in experiment [10], in [11] and in experiment [12] was greater than 100 µM each time. Moreover, the TGI in experiment [13], in experiment [14] and in experiment [15] was greater than 100 µM in each case.

Consider `Nc1ccn(C2CCC(CO)O2)c(=S)n1` (centres undefined), for which the TGI in experiment [1], in [2], in experiment [3], in experiment [4], in [5] and in experiment [6] was greater than 100 µM throughout. The TGI in experiment [7], in experiment [8], in [9], in experiment [10], in experiment [11] and in [12] was greater than 100 µM throughout. Further, the TGI in experiment [13], in experiment [14] and in [15] was greater than 100 µM in each case.

On to `COC(=O)[C@@H]1CN(C(C)=O)C(=O)N1C(=O)OCc1ccccc1`, for which the total growth inhibition concentration (TGI) in [1], in [2], in [3], in experiment [4], in [5] and in experiment [6] was greater than 100 µM throughout. The TGI in [7], in [8], in [9], in experiment [10], in [11] and in experiment [12] was greater than 100 µM in each case. The TGI in [13], in experiment [14] and in [15] was greater than 100 µM in each case.

Regarding `c1ccc(CNCCCCNCCCNCc2ccccc2)cc1`, the TGI in experiment [1] is 29.3 µM; in experiment [2], 57.3 µM; in experiment [3], 29.7 µM; in [4] it was 34.2 µM; in experiment [5], 40.5 µM; in [6], 34.7 µM. Also, the TGI in experiment [8] was 28.8 µM; in experiment [9], greater than 100 µM; in [10], greater than 100 µM; in experiment [11] it was greater than 100 µM; in experiment [12], 32.5 µM; in [13] it was 32.7 µM. Besides, the TGI in experiment [14] turned out to be 77.4 µM; in [15] it was 32 µM.

On to `COC(CC1(/C=C/O[Si](C(C)C)(C(C)C)C(C)C)C(=O)N(C)c2ccccc21)OC` (centres undefined), for which the TGI in experiment [1] is greater than 100 µM; in experiment [2], greater than 100 µM; in experiment [3] it was 45.2 µM; in [4], greater than 100 µM; in experiment [5], greater than 100 µM; in experiment [6], greater than 100 µM. Also, the TGI in [7], in experiment [8], in experiment [9], in experiment [10], in experiment [11] and in experiment [12] was greater than 100 µM in each case. The TGI in experiment [13] and in experiment [15] was greater than 100 µM in each case.

For the compound `O=c1oc2ccccc2c(O)c1/C=N/C(=S)NCCc1ccccc1`, the TGI in [1] is greater than 85.6 µM; in [2], greater than 100 µM; in [3] it was greater than 100 µM; in experiment [4] it was greater than 100 µM; in [5], greater than 100 µM; in experiment [6], greater than 75.3 µM. Further, the TGI in experiment [7] was greater than 100 µM; in experiment [8], greater than 100 µM; in experiment [9], 89.3 µM; in experiment [10], greater than 100 µM; in [11], greater than 85.1 µM; in experiment [12], greater than 100 µM. The TGI in experiment [13], in experiment [14] and in experiment [15] was greater than 100 µM throughout.

For `CC(=O)Nc1ccc(-c2nc3ccccc3s2)cc1I`, the total growth inhibition concentration (TGI) was greater than 100 µM in [1]; 80.1 µM in experiment [2]; greater than 100 µM in [3]; greater than 100 µM in experiment [4]; greater than 100 µM in experiment [5]; greater than 100 µM in experiment [6]. The TGI was 37.7 µM in experiment [7]; greater than 100 µM in experiment [8]; greater than 100 µM in experiment [9]; greater than 100 µM in experiment [10]; greater than 100 µM in experiment [11]; greater than 100 µM in experiment [12]. Moreover, the results for the TGI in experiment [13] and in [15] were greater than 87.5 µM and greater than 100 µM, respectively.

For `CCOC(=O)c1cnc2n(c1=N)[C@H]1CCCC[C@@H]1N2`, the TGI in experiment [1], in [2], in experiment [3], in [4], in experiment [5] and in [6] was greater than 100 µM each time. In addition, the TGI in [7], in experiment [8], in [9], in [10], in experiment [11] and in [12] was greater than 100 µM throughout. Besides, the TGI in experiment [13] and in [15] was greater than 100 µM in each case.

Consider `O=c1ccn(C2OC(CO)C(O)C2[Se]c2ccccc2)c(=O)[nH]1` (centres undefined), for which the TGI in experiment [1], in [2], in experiment [3], in experiment [4], in experiment [5] and in experiment [6] was greater than 100 µM throughout. Moreover, the TGI in experiment [7], in [8], in [10], in [11], in [12] and in experiment [13] was greater than 100 µM each time. Moreover, the TGI in experiment [14] turned out to be 0.685 µM; in [15] it was 14.2 µM.
